Reference: patent US20260250318A1, “COMPOSITIONS AND METHODS FOR CROSSING THE BLOOD BRAIN BARRIER” (VOYAGER THERAPEUTICS, INC., priority 2022, published 2026)

Tests used:
[1] = system: brains, heart, liver, muscle, and DRG of the NHPs; test: Maturation of TTM-001 and TTM-002 capsids, NGS enrichment in NHP tissues; type: in vivo; conditions: relative to AAV9 control
How it was run: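 Variants carry mutations within and flanking the loop IV peptide insert: positions 450–466 were triplet-randomized, while positions 449–466 received low-frequency point mutations. The combined pool went into two NHPs, and each peptide was scored by NGS enrichment ratio against AAV9.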

brain = test: Matured TTM-001 and TTM-002 variants, NGS enrichment in mouse brain; type: in vivo, mice; conditions: NGS fold-enrichment, relative to AAV9 control
[2] = NGS fold-enrichment of RNA, NHP brain
[3] = NGS fold-enrichment, NHP liver DNA
[4] = NGS fold-enrichment, NHP liver RNA
[5] = NGS fold-enrichment, NHP muscle
[6] = NGS fold-enrichment, DRG of NHPs
[7] = NGS fold-enrichment, RNA, brain of NHPs
[8] = NGS fold-enrichment, heart of NHPs
[9] = NGS fold-enrichment, liver DNA of NHPs
[10] = NGS fold-enrichment, liver RNA of NHPs
[11] = NGS fold-enrichment, muscle of NHPs

| Sequence | Fold Enrichment relative to AAV9, Brain (NHP) [1, 2] | Fold Enrichment relative to AAV9, DRG (NHP) ([1]; NGS fold-enrichment, NHP DRG) | Fold Enrichment relative to AAV9, Heart (NHP) ([1]; NGS fold-enrichment, NHP heart) | Fold Enrichment relative to AAV9, Liver DNA (NHP) [1, 3] | Fold Enrichment relative to AAV9, Liver RNA (NHP) [1, 4] | Fold Enrichment relative to AAV9, Muscle (NHP) [1, 5] | Fold Enrichment relative to AAV9, Brain (Mouse) (brain; mouse brain) | Fold Enrichment relative to AAV9, DRG (NHP) [1, 6] | Fold Enrichment relative to AAV9, Brain (NHP) [1, 7] | Fold Enrichment relative to AAV9, Heart (NHP) [1, 8] | Fold Enrichment relative to AAV9, Liver DNA (NHP) [1, 9] | Fold Enrichment relative to AAV9, Liver RNA (NHP) [1, 10] | Fold Enrichment relative to AAV9, Muscle (NHP) [1, 11] | Fold Enrichment relative to AAV9, Brain (Mouse) (brain; brain of mice) |
| --- | --- | --- | --- | --- | --- | --- | --- | --- | --- | --- | --- | --- | --- | --- |
| KTDAGHDSPHKSGQNQQT | 88.924 fold | 0.000 fold | 0.013 fold | 0.070 fold | 1.076 fold | 0.000 fold | 18.107 fold |  |  |  |  |  |  |  |
| KTERPSGSPHSKAQNQQT | 75.669 fold | 0.000 fold | 0.029 fold | 0.156 fold | 0.000 fold | 0.000 fold | 73.894 fold | 0.000 fold | 75.669 fold | 0.029 fold | 0.156 fold | 0.000 fold | 0.000 fold | 73.894 fold |
| KTFNGSGSPHSKAPNLQT | 121.436 fold | 0.000 fold | 0.167 fold | 0.015 fold | 0.000 fold | 0.000 fold | 168.920 fold | 0.000 fold | 121.436 fold | 0.167 fold | 0.015 fold | 0.000 fold | 0.000 fold | 168.920 fold |
| KTINGSGSPHSKSQNVQT |  |  |  |  |  |  |  | 0.000 fold | 66.627 fold | 0.190 fold | 0.188 fold | 0.202 fold | 0.000 fold | 56.672 fold |
| KTITGSGSPHSKAQTQLT |  |  |  |  |  |  |  | 0.160 fold | 60.846 fold | 8.992 fold | 0.000 fold | 0.000 fold | 0.000 fold | 55.640 fold |
| KTINGHDSPHKTGQNQPP | 77.357 fold | 0.000 fold | 0.149 fold | 0.096 fold | 0.000 fold | 0.000 fold | 8.865 fold |  |  |  |  |  |  |  |
| KVINGHDSPHKSGQTQQT (peptide inserted in AAV capsid) | 91.665 fold | 0.000 fold | 0.055 fold | 0.000 fold | 0.311 fold | 1.526 fold | 7.391 fold |  |  |  |  |  |  |  |
| KAINGHDSPHKSEKNQQT | 77.103 fold | 0.000 fold | 0.274 fold | 0.000 fold | 0.000 fold | 0.000 fold | 26.868 fold |  |  |  |  |  |  |  |
